US20260240844A1, “INHIBITORS OF CHD1L AND USES THEREOF” (The Regents of the University of Colorado, a body corporate, priority 2023, published 2026)

Target: T1, full length CHD1L (Homo sapiens, UniProt Q86WJ1)
T1 construct: host or cells: Rosetta 2 (DE3) pLysS cells (E. coli) for CHD1L
Experiment: Nucleosome remodeling FRET assay
Type: biochemical
Settings: full length-CHD1L pre-incubated with 10 μM for 10 minutes
Description: For that, mononucleosomes composed of a human histone octamer containing a Cy5-tagged H2A, wrapped by a Cy3-labelled DNA template (EpiCypher, Cat #16-4201) were used. […] Right after the addition of ATP the assay was monitored overtime using Cy3 excitation (531 nm) and simultaneous detection of Cy3 (595 nm) and Cy5 (685 nm) emission signals using an EnVision plate reader (PerkinElmer). Data are expressed as the ratio of Cy3/Cy5 signal overtime.
Inhibition of nucleosome remodeling by CHD1L inhibitors blocks DDR signaling. CHD1L's main role is chromatin remodeling and DNA relaxation, moving from a tightly condensed DNA to an accessible state allowing for DNA transcription and repair. Thus, the effect of CHD1L ATPase inhibition on its nucleosome remodeling activity using a FRET-based assay was used. The FRET assay measures the distancing of Cy3 on DNA and Cy5 on the H2A histone upon nucleosome sliding.

T1 sequence (Q86WJ1 16-879): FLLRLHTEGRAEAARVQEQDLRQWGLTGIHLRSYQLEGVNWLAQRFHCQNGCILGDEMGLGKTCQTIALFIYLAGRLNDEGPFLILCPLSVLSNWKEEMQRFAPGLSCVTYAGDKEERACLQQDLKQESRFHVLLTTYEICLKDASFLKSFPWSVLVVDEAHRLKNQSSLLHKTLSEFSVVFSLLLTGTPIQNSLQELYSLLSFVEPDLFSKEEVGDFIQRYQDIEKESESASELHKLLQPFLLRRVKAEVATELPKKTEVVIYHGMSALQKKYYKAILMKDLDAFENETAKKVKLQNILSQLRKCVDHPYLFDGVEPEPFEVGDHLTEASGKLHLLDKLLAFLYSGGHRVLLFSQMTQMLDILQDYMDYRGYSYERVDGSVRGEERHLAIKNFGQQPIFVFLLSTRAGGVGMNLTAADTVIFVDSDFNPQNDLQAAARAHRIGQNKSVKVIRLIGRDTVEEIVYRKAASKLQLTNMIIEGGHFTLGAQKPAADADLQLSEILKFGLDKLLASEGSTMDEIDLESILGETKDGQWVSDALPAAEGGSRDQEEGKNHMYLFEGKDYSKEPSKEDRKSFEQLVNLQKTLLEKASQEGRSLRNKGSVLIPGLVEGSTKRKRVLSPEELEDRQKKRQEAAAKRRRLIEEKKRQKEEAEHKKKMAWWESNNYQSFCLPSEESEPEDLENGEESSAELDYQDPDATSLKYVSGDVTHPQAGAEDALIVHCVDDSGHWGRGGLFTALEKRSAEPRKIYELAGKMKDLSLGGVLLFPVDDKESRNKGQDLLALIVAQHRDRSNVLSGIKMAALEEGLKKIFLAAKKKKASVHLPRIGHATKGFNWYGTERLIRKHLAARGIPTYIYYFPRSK

Cc1cc(Nc2ccc(NC(=O)Cc3cccs3)cc2)nc(N2CCCC2)n1 [Compound 6, N-(4-((6-methyl-2-(pyrrolidin-1-yl)pyrimidin-4-yl)amino)phenyl)-2-(thiophen-2-yl)acetamide]
nucleosome remodeling rate: reduction of the remodeling rate
